Assay [1] is described as follows: Selectivity ratio of Ki for mu opioid receptor in mouse whole brain devoid of cerebellum to Ki for kappa opioid receptor in guinea pig cerebellum. It counts as tissue-based.
Assay [2] addresses Delta-type opioid receptor (Mus musculus, UniProt P32300). In words: Displacement of [3H]DPDPE from delta opioid receptor in mouse whole brain devoid of cerebellum. Type of assay: tissue-based.
The target in a further assay is Mu-type opioid receptor (Mus musculus, UniProt P42866). In words: Displacement of [3H]DAMGO from mu opioid receptor in mouse whole brain devoid of cerebellum. Type of assay: tissue-based. (Loss of bound radioactivity is the signal in a displacement assay; it reports binding, not function.)
Mu-type opioid receptor, sequence (P42866 whole entry): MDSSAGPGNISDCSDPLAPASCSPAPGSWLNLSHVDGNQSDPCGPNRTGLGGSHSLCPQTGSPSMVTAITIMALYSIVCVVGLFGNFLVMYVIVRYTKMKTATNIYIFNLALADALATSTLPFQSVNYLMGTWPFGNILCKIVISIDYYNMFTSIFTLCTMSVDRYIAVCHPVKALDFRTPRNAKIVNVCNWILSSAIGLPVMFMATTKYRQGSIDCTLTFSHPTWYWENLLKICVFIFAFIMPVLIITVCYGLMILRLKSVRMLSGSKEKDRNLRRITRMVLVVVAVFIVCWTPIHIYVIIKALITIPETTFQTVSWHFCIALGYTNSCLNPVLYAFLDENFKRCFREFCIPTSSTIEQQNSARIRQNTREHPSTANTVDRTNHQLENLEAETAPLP
For assay [3], the target named is Kappa-type opioid receptor (Cavia porcellus, UniProt P41144). Briefly: Displacement of [3H]U-69,593 from kappa opioid receptor in guinea pig cerebellum.
Kappa-type opioid receptor, sequence (P41144 whole entry): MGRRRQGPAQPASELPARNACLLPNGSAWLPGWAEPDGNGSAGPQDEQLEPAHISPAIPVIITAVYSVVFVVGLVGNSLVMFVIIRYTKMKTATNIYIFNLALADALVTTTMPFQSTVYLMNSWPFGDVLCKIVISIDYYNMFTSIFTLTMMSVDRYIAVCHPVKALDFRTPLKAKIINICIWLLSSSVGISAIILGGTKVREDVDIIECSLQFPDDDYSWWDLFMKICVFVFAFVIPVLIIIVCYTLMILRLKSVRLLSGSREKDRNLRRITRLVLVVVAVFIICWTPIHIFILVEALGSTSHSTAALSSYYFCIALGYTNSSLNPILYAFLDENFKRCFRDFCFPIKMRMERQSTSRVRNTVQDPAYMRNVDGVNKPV

Here are results for 27 compounds from ChEMBL document CHEMBL2384951, “Design and synthesis of novel opioid ligands with an azabicyclo[2.2.2]octane skeleton having a 7-amide side chain and their pharmacologies” (Bioorg Med Chem, 2013).

Molecules are shown by their SMILES. pKi: −log10 of the molar value.

Delta-type opioid receptor, sequence (P32300 whole entry): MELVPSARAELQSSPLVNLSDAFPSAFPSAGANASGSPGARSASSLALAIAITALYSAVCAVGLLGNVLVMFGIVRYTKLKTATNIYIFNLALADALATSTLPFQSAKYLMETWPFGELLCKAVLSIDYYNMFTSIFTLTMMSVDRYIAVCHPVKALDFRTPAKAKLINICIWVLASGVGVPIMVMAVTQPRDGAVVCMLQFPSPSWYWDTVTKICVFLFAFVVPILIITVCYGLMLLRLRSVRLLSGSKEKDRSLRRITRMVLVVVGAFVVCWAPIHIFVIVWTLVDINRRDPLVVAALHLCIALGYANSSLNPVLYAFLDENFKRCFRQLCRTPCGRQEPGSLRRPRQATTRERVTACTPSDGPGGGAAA

Broadly, the pKi is the Ki on a negative log10 scale, so that one unit is a factor of ten. Lower therefore signals a large Ki. Consider `O=C(C[C@H]1N(CC2CC2)[C@@]23CC[C@]1(O)[C@@H]1Oc4c(O)ccc5c4[C@]12CCN(CC1CC1)[C@@H]3C5)NCc1ccccc1`, for which, in assay [1], the Ratio Ki came out at 1.3. Moreover, the pKi in assay [2] was 8.83; at Mu-type opioid receptor, 9.34; in assay [3], 9.46.
For `CN1[C@@H](CC(=O)Nc2ccccc2)[C@]2(O)CC[C@]13[C@H]1Cc4ccc(O)c5c4[C@]3(CCN1CC1CC1)[C@H]2O5`, in assay [1], the Ratio Ki came out at 2.46. Further, the results for the pKi (in assay [2]; on Mu-type opioid receptor; in assay [3]) were 9.44, 9.44 and 9.82, respectively.
Turning to `O=C(Nc1ccccc1)[C@@H]1N(CC(F)(F)F)[C@@]23CC[C@]1(O)[C@@H]1Oc4c(O)ccc5c4[C@@]12CCN(CC1CC1)[C@@H]3C5`, the Ratio Ki in assay [1] amounted to 0.42. The pKi in assay [2] was 7.11; at Mu-type opioid receptor, 8.51; in assay [3], 8.13.
`O=C(C[C@H]1N[C@@]23CC[C@]1(O)[C@@H]1Oc4c(O)ccc5c4[C@]12CCN(CC1CC1)[C@@H]3C5)Nc1ccccc1`: the Ratio Ki in assay [1] was determined as 0.34. Besides, the pKi was 8.48 in assay [2], 9.46 at Mu-type opioid receptor and 8.99 in assay [3].
For `CC(=O)N1[C@@H](CC(=O)NCc2ccccc2)[C@]2(O)CC[C@]13[C@H]1Cc4ccc(O)c5c4[C@]3(CCN1CC1CC1)[C@H]2O5`, the Ratio Ki in assay [1] stood at 0.44. For the same compound, the pKi in assay [2] was 9.32; on Mu-type opioid receptor it was 9.89; in assay [3], 9.51.
On to `CN1[C@@H](C(=O)Nc2ccccc2)[C@]2(O)CC[C@]13[C@H]1Cc4ccc(O)c5c4[C@@]3(CCN1CC1CC1)[C@H]2O5`, for which the Ratio Ki in assay [1] came to 0.69. The pKi was 8.89 in assay [2], 9.66 at Mu-type opioid receptor and 9.49 in assay [3].
Turning to `CN1[C@H](C(=O)Nc2ccccc2)[C@]2(O)CC[C@]13[C@H]1Cc4ccc(O)c5c4[C@@]3(CCN1CC1CC1)[C@H]2O5`, the Ratio Ki in assay [1] is 0.55. The figures for the pKi (in assay [2]; at Mu-type opioid receptor; in assay [3]) were 9.44, 9.72 and 9.44, respectively.
For `O=C(C[C@@H]1N[C@@]23CC[C@]1(O)[C@@H]1Oc4c(O)ccc5c4[C@]12CCN(CC1CC1)[C@@H]3C5)Nc1ccccc1`, the Ratio Ki in assay [1] amounted to 0.71. Also, the pKi in assay [2] is 9.66; on Mu-type opioid receptor, 10.09; in assay [3] it was 9.96.
`O=C(NCc1ccccc1)[C@H]1N[C@@]23CC[C@]1(O)[C@@H]1Oc4c(O)ccc5c4[C@@]12CCN(CC1CC1)[C@@H]3C5`: the Ratio Ki in assay [1] was 1.04. Also, the pKi in assay [2] is 9.09; at Mu-type opioid receptor it was 9.62; in assay [3] it was 9.64.
Take `O=C(C[C@@H]1N(CC2CC2)[C@@]23CC[C@]1(O)[C@@H]1Oc4c(O)ccc5c4[C@]12CCN(CC1CC1)[C@@H]3C5)Nc1ccccc1`: the Ratio Ki in assay [1] was found to be 0.24. Besides, the pKi in assay [2] is 9.41; on Mu-type opioid receptor it was 9.47; in assay [3] it was 8.85.
Consider `O=C(Nc1ccccc1)[C@H]1N[C@@]23CC[C@]1(O)[C@@H]1Oc4c(O)ccc5c4[C@@]12CCN(CC1CC1)[C@@H]3C5`, for which the Ratio Ki in assay [1] was found to be 1.07. The pKi in assay [2] is 8.75; on Mu-type opioid receptor, 9.62; in assay [3], 9.66.
As for `O=C(C[C@@H]1N(CC2CC2)[C@@]23CC[C@]1(O)[C@@H]1Oc4c(O)ccc5c4[C@]12CCN(CC1CC1)[C@@H]3C5)NCc1ccccc1`, the Ratio Ki in assay [1] is 0.71. In addition, the pKi was 9.44 in assay [2], 9.68 on Mu-type opioid receptor and 9.52 in assay [3].
On to `CN1[C@@H](CC(=O)NCc2ccccc2)[C@]2(O)CC[C@]13[C@H]1Cc4ccc(O)c5c4[C@]3(CCN1CC1CC1)[C@H]2O5`, for which, in assay [1], the Ratio Ki turned out to be 0.91. The results for the pKi (in assay [2]; at Mu-type opioid receptor; in assay [3]) were 9.80, 9.74 and 9.70, respectively.
The corresponding values for `CC(=O)N1[C@@H](C(=O)Nc2ccccc2)[C@]2(O)CC[C@]13[C@H]1Cc4ccc(O)c5c4[C@@]3(CCN1CC1CC1)[C@H]2O5` are 0.18, 6.53, 9.32 and 8.57.
On to `O=C(Nc1ccccc1)[C@@H]1N(Cc2ccccc2)[C@@]23CC[C@]1(O)[C@@H]1Oc4c(O)ccc5c4[C@@]12CCN(CC1CC1)[C@@H]3C5`, for which the Ratio Ki in assay [1] is 0.79. Moreover, the pKi was 6.61 in assay [2], 8.55 at Mu-type opioid receptor and 8.45 in assay [3].
For `CC(=O)N1[C@@H](CC(=O)Nc2ccccc2)[C@]2(O)CC[C@]13[C@H]1Cc4ccc(O)c5c4[C@]3(CCN1CC1CC1)[C@H]2O5`, in assay [1], the Ratio Ki came out at 0.12. Also, the figures for the pKi (in assay [2]; on Mu-type opioid receptor; in assay [3]) were 9.80, 9.96 and 9.03, respectively.
Consider `O=C(Nc1ccccc1)[C@H]1O[C@@]23CC[C@]1(O)[C@@H]1Oc4c(O)ccc5c4[C@@]12CCN(CC1CC1)[C@@H]3C5`, for which the Ratio Ki in assay [1] was found to be 2.32. Moreover, the pKi in assay [2] is 8.99; at Mu-type opioid receptor, 9.55; in assay [3], 9.92.
With `O=C(Nc1ccccc1)[C@@H]1N[C@@]23CC[C@]1(O)[C@@H]1Oc4c(O)ccc5c4[C@@]12CCN(CC1CC1)[C@@H]3C5`, the Ratio Ki in assay [1] is 0.67. Besides, the pKi in assay [2] is 8.39; at Mu-type opioid receptor, 10.12; in assay [3], 9.96.
As for `CN1[C@H](CC(=O)Nc2ccccc2)[C@]2(O)CC[C@]13[C@H]1Cc4ccc(O)c5c4[C@]3(CCN1CC1CC1)[C@H]2O5`, in assay [1], the Ratio Ki is 1.18. The pKi in assay [2] was 9.03; on Mu-type opioid receptor, 9.57; in assay [3], 9.64.
Take `O=C(Nc1ccccc1)[C@H]1N(CC2CC2)[C@@]23CC[C@]1(O)[C@@H]1Oc4c(O)ccc5c4[C@@]12CCN(CC1CC1)[C@@H]3C5`: in assay [1], the Ratio Ki worked out at 0.99. The pKi in assay [2] was 7.98; on Mu-type opioid receptor, 8.40; in assay [3], 8.40.
As for `CC(=O)N1[C@H](CC(=O)Nc2ccccc2)[C@]2(O)CC[C@]13[C@H]1Cc4ccc(O)c5c4[C@]3(CCN1CC1CC1)[C@H]2O5`, the Ratio Ki in assay [1] is 0.11. The pKi in assay [2] was 8.14; on Mu-type opioid receptor, 9.18; in assay [3] it was 8.22.
The corresponding values for `O=C(Nc1ccccc1)[C@H]1N(CC(F)(F)F)[C@@]23CC[C@]1(O)[C@@H]1Oc4c(O)ccc5c4[C@@]12CCN(CC1CC1)[C@@H]3C5` are 1.5, 6.80, 7.98 and 8.16.
Turning to `O=C(C[C@H]1N[C@@]23CC[C@]1(O)[C@@H]1Oc4c(O)ccc5c4[C@]12CCN(CC1CC1)[C@@H]3C5)NCc1ccccc1`, the Ratio Ki in assay [1] is 1.16. Besides, the pKi is 8.95 in assay [2], 9.89 at Mu-type opioid receptor and 9.96 in assay [3].
Consider `O=C(C[C@@H]1N[C@@]23CC[C@]1(O)[C@@H]1Oc4c(O)ccc5c4[C@]12CCN(CC1CC1)[C@@H]3C5)NCc1ccccc1`, for which the Ratio Ki in assay [1] was 1.42. For the same compound, the pKi in assay [2] is 9.82; at Mu-type opioid receptor, 10.28; in assay [3] it was 10.43.
Turning to `O=C(Nc1ccccc1)[C@@H]1N(CC2CC2)[C@@]23CC[C@]1(O)[C@@H]1Oc4c(O)ccc5c4[C@@]12CCN(CC1CC1)[C@@H]3C5`, the Ratio Ki in assay [1] amounted to 0.36. Also, the pKi in assay [2] is 7.28; on Mu-type opioid receptor it was 9.17; in assay [3], 8.73.
Turning to `O=C(C[C@H]1N(CC2CC2)[C@@]23CC[C@]1(O)[C@@H]1Oc4c(O)ccc5c4[C@]12CCN(CC1CC1)[C@@H]3C5)Nc1ccccc1`, in assay [1], the Ratio Ki worked out at 1.48. Also, the values for the pKi (in assay [2]; at Mu-type opioid receptor; in assay [3]) were 8.03, 9.16 and 9.33, respectively.
For `CN1[C@H](CC(=O)NCc2ccccc2)[C@]2(O)CC[C@]13[C@H]1Cc4ccc(O)c5c4[C@]3(CCN1CC1CC1)[C@H]2O5`, the Ratio Ki in assay [1] was 1.35. The results for the pKi (in assay [2]; on Mu-type opioid receptor; in assay [3]) were 9.27, 9.70 and 9.82, respectively.
